{"source": "patent US20090274662A1", "about": "“Methods And Kits For The Treatment Of Inflammatory Bowel Disorder Conditions” (priority 2008, published 2009)", "conditions": "male, human, in vivo", "text": "The patient is prescribed a pharmaceutical composition to be taken twice each week. Each unit dose of the pharmaceutical composition comprises 7200 milligrams of delayed-release mesalamine."}
{"smiles": "Nc1ccc(O)c(C(=O)O)c1", "note": "[delayed-release mesalamine, 5-amino-2-hydroxybenzoic acid]", "values": [{"measurement": "amount of delayed-release mesalamine absorbed into the mucosa and colonic wall", "value": "equivalent to that of 2400 milligrams mesalamine taken once-daily"}]}
